target: MAPK14 (UniProt Q16539); test: Inhibition of MAPK14 Kinase Activity
Sequence (Q16539 whole entry, looked up): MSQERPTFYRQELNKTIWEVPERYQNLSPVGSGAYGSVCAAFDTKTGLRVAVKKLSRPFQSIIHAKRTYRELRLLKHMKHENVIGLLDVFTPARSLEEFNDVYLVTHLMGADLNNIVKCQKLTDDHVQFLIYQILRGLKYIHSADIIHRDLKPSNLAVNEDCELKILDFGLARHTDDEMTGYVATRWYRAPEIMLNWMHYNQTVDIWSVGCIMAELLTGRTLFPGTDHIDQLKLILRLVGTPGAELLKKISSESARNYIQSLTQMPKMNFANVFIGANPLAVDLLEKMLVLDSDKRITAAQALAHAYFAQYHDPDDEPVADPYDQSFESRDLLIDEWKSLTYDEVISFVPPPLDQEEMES

SMILES	IC50 [µM]
CC(C)S(=O)(=O)n1c(N)nc2ccc(-c3nc(-c4nccs4)[nH]c3-c3ccccc3)cc21	≤ 5
CC(C)S(=O)(=O)n1c(N)nc2ccc(-c3nc(-c4ccc(Cl)s4)[nH]c3-c3ccc(F)cc3)cc21	≤ 5
CC(C)S(=O)(=O)n1c(N)nc2ccc(-c3nc(-c4ccc(N)cc4)[nH]c3-c3ccccc3)cc21	≤ 5
CCOC(=O)N1CCC(n2cnc(-c3cccc(F)c3)c2-c2ccc3nc(N)n(S(=O)(=O)C(C)C)c3c2)CC1	≤ 5
CC(C)S(=O)(=O)n1c(N)nc2ccc(-c3nc(-c4ncc[nH]4)[nH]c3-c3ccccc3)cc21	≤ 5
CC(C)S(=O)(=O)n1c(N)nc2ccc(-c3nc(-c4cccs4)n(C)c3-c3ccccc3)cc21	≤ 5
CC(C)S(=O)(=O)n1c(N)nc2ccc(-c3c(-c4ccccc4)nc4n3CCC4)cc21	≤ 5
CC(C)S(=O)(=O)n1c(N)nc2ccc(-c3c(-c4ccc(F)cc4F)ncn3C3CC3)cc21	≤ 5
CC(C)S(=O)(=O)n1c(N)nc2ccc(-c3c(-c4ccccc4F)nc(N=[N+]=[N-])n3C3CC3)cc21	≤ 5
CC(C)S(=O)(=O)n1c(N)nc2ccc(-c3c(-c4ccc(F)cc4)ncn3CCN3CCOCC3)cc21	≤ 5
CC(C)S(=O)(=O)n1c(N)nc2ccc(-c3nc[nH]c3-c3cccc(F)c3F)cc21	≤ 5
CC(C)S(=O)(=O)n1c(N)nc2ccc(-c3nc(C4CCN(CCC(F)(F)F)CC4)[nH]c3-c3ccccc3)cc21	≤ 5
CC(C)S(=O)(=O)n1c(N)nc2ccc(-c3nc(-c4ccc(S(C)(=O)=O)cc4)[nH]c3-c3ccccc3)cc21	≤ 5
CC(C)S(=O)(=O)n1c(N)nc2ccc(-c3c(-c4ccccc4)ncn3C)cc21	≤ 5
CC(C)S(=O)(=O)n1c(N)nc2ccc(C3C(c4ccccc4)N=C4Sc5ccccc5N43)cc21 (stereo not given)	≤ 5
CCc1nc(-c2ccc3nc(N)n(S(=O)(=O)C(C)C)c3c2)c(-c2ccc(F)cc2)[nH]1	≤ 5
CC(C)S(=O)(=O)n1c(N)nc2ccc(-c3c(-c4ccc(F)cc4)ncn3C3CCCCC3)cc21	≤ 5
CC(C)S(=O)(=O)n1c(N)nc2ccc(-c3nc(-c4c(F)cccc4Cl)[nH]c3-c3ccccc3)cc21	≤ 5
CC(C)S(=O)(=O)n1c(N)nc2ccc(-c3c(-c4ccccc4)ncn3C3CCN(C(=O)OC(C)(C)C)CC3)cc21	≤ 5
CC(C)S(=O)(=O)n1c(N)nc2ccc(-c3nc(C4CCN(Cc5ccccc5)CC4)[nH]c3-c3ccccc3)cc21	≤ 5
CC(C)S(=O)(=O)n1c(N)nc2ccc(-c3nc(-c4ccccc4Cl)[nH]c3-c3ccccc3)cc21	≤ 5
CC(C)S(=O)(=O)n1c(N)nc2ccc(-c3c(-c4ccc(F)cc4F)ncn3C3CCCCC3)cc21	≤ 5

SMILES	IC50 [µM]
CC(C)S(=O)(=O)n1c(N)nc2ccc(-c3c(-c4ccccc4)nc4ccccn34)cc21	≤ 5
CC(C)S(=O)(=O)n1c(N)nc2ccc(-c3nc(-c4cccnc4)[nH]c3-c3ccccc3)cc21	≤ 5
Nc1nc2ccc(-c3nc(-c4cccs4)[nH]c3-c3ccccc3)cc2[nH]1	≤ 5
CCN(CC)CCOc1cccc(-c2nc(-c3ccc4nc(N)n(S(=O)(=O)C(C)C)c4c3)c(-c3ccccc3)[nH]2)c1	≤ 5
CC(C)S(=O)(=O)n1c(N)nc2ccc(-c3nc(-c4c(F)cccc4F)[nH]c3-c3ccccc3)cc21	≤ 5
CC(C)S(=O)(=O)n1c(N)nc2ccc(-c3c(-c4ccccc4)ncn3C3CCOCC3)cc21	≤ 5
CCn1cnc(-c2ccccc2)c1-c1ccc2nc(N)n(S(=O)(=O)C(C)C)c2c1	≤ 5
CC(C)S(=O)(=O)n1c(N)nc2ccc(-c3[nH]n(-c4ccccc4)c(=O)c3-c3ccc(F)cc3)cc21	≤ 5
CC(C)S(=O)(=O)n1c(N)nc2ccc(-c3c(-c4ccc(F)cc4)nc4n3CCC4)cc21	≤ 5
CC(C)S(=O)(=O)n1c(N)nc2ccc(-c3c(-c4cccc(F)c4)ncn3Cc3cccnc3)cc21	≤ 5
CC(C)S(=O)(=O)n1c(N)nc2ccc(-c3c(-c4ccccc4)ncn3CCN3CCOCC3)cc21	≤ 5
CC(C)S(=O)(=O)n1c(N)nc2ccc(-c3nc(-c4c(F)cccc4F)n(C)c3-c3ccccc3)cc21	≤ 5
CC(C)S(=O)(=O)n1c(N)nc2ccc(-c3nc(C4CCOCC4)[nH]c3-c3ccccc3)cc21	≤ 5
CC(C)S(=O)(=O)n1c(N)nc2ccc(-c3c(-c4ccccc4)ncn3C3CCC(=O)CC3)cc21	≤ 5
CC(C)S(=O)(=O)n1c(N)nc2ccc(-c3nc(CC(C)(C)C)[nH]c3-c3ccc(F)cc3)cc21	≤ 5
CC(C)S(=O)(=O)n1c(N)nc2ccc(-c3nc(CNCCN(C)C)[nH]c3-c3ccccc3)cc21	≤ 5
CC(C)S(=O)(=O)n1c(N)nc2ccc(-c3c(-c4ccccc4)ncn3C3CCCC3)cc21	≤ 5
CC(C)S(=O)(=O)n1c(N)nc2ccc(-c3c(-c4cccc(F)c4F)ncn3C)cc21	≤ 5
Cc1cc(F)ccc1-c1[nH]c(-c2ccc(F)cc2)nc1-c1ccc2nc(N)n(S(=O)(=O)C(C)C)c2c1	≤ 5
CC(C)S(=O)(=O)n1c(N)nc2ccc(-c3c(-c4ccc(F)cc4)ncn3[C@@H](C)CO)cc21	≤ 5
CC(C)S(=O)(=O)n1c(N)nc2ccc(-c3nc[nH]c3-c3ccccc3)cc21	≤ 5
CC(C)S(=O)(=O)n1c(N)nc2ccc(-c3nc(-c4ccc(Cl)s4)[nH]c3-c3ccccc3)cc21	≤ 5

SMILES	IC50 [µM]
CC(C)S(=O)(=O)n1c(N)nc2ccc(-c3c(-c4cccc(F)c4)ncn3C3CC3)cc21	≤ 5
CC(C)S(=O)(=O)n1c(N)nc2ccc(-c3nc(-c4ccc(OCCN5CCOCC5)c(F)c4)[nH]c3-c3ccccc3)cc21	≤ 5
CC(C)S(=O)(=O)n1c(N)nc2ccc(-c3c(C#N)cnn3-c3ccccc3)cc21	≤ 5
CC(C)S(=O)(=O)n1c(Cc2ccccc2N)nc2ccc(-c3[nH]cnc3-c3ccccc3)cc21	≤ 5
CC(C)S(=O)(=O)n1c(N)nc2ccc(-c3nc(-c4ccc(N5CCCC5)cc4)[nH]c3-c3ccccc3)cc21	≤ 5
CC(C)S(=O)(=O)n1c(N)nc2ccc(-c3c(-c4ccccc4)ncn3CCCc3ccccc3)cc21	≤ 5
CC(C)S(=O)(=O)n1c(N)nc2ccc(-c3c(-c4ccccc4F)ncn3C3CC3)cc21	≤ 5
CC(C)S(=O)(=O)n1c(N)nc2ccc(-c3c(-c4ccccc4F)nc(C#C[Si](C)(C)C)n3C3CC3)cc21	≤ 5
CC(C)S(=O)(=O)n1c(N)nc2ccc(-c3nc(-c4cccc(OCCN5CCCCC5)c4)[nH]c3-c3ccccc3)cc21	≤ 5
CC(C)c1nc(-c2ccc3nc(N)n(S(=O)(=O)C(C)C)c3c2)c(-c2ccc(F)cc2)[nH]1	≤ 5
CC(C)S(=O)(=O)n1c(N)nc2ccc(-c3c(-c4ccccc4)nc(-c4cccs4)n3C)cc21	≤ 5
CC(C)S(=O)(=O)n1c(N)nc2ccc(-c3nc[nH]c3-c3ccccc3F)cc21	≤ 5
CC(C)S(=O)(=O)n1c(N)nc2ccc(-c3nc(C4CCN(Cc5nccn5C)CC4)[nH]c3-c3ccccc3)cc21	≤ 5
CCNc1ccc(-c2nc(-c3ccc4nc(N)n(S(=O)(=O)C(C)C)c4c3)c(-c3ccccc3)[nH]2)cc1	≤ 5
COc1ccc(C2N=C3C(C)=CC=CN3C2c2ccc3nc(N)n(S(=O)(=O)C(C)C)c3c2)cc1 (stereo not given)	≤ 5
Cc1ccsc1-c1nc(-c2ccc3nc(N)n(S(=O)(=O)C(C)C)c3c2)c(-c2ccccc2)[nH]1	≤ 5
CC(C)S(=O)(=O)n1c(N)nc2ccc(-c3c(-c4ccccc4)ncn3Cc3ccccc3F)cc21	≤ 5
CC(C)c1nc(-c2ccc3nc(N)n(S(=O)(=O)C(C)C)c3c2)c(-c2ccccc2)[nH]1	≤ 5
CC(C)S(=O)(=O)n1c(N)nc2ccc(-c3nc(-c4cccc(F)c4F)[nH]c3-c3ccccc3)cc21	≤ 5
NCCc1nc2ccc(-c3c(-c4ccccc4)ncn3C3CCCCC3)cc2s1	≤ 5
CC(C)S(=O)(=O)n1c(N)nc2ccc(-c3c(-c4ccc(F)cc4)ncn3C3CCN(C)CC3)cc21	≤ 5
CC(C)S(=O)(=O)n1c(N)nc2ccc(-c3nc(-c4c(Cl)cccc4Cl)[nH]c3-c3ccc(F)cc3)cc21	≤ 5

SMILES	IC50 [µM]
CC(C)S(=O)(=O)n1c(N)nc2ccc(-c3nc(-c4cccs4)[nH]c3-c3ccc(F)cc3)cc21	≤ 5
CC(C)S(=O)(=O)n1c(N)nc2ccc(-c3c(-c4ccccc4)ncn3Cc3ccc(F)cc3F)cc21	≤ 5
CC(C)S(=O)(=O)n1c(N)nc2ccc(-c3nc(-c4c(F)cccc4C(F)(F)F)[nH]c3-c3ccccc3)cc21	≤ 5
CC(C)S(=O)(=O)n1c(N)nc2ccc(-c3nc(-c4ccccc4N4CCOCC4)[nH]c3-c3ccccc3)cc21	≤ 5
CC(C)S(=O)(=O)n1c(N)nc2ccc(-c3c(-c4ccccc4)ncn3C3CCNCC3)cc21	≤ 5
CC(C)S(=O)(=O)n1c(N)nc2ccc(-c3c(-c4ccccc4)ncn3C3CCN(Cc4ccccc4)CC3)cc21	≤ 5
CC(C)S(=O)(=O)n1c(N)nc2ccc(-c3c(-c4ccccc4)ncn3Cc3ccc(F)cc3)cc21	≤ 5
CN(C)S(=O)(=O)n1c(N)nc2ccc(-c3nc(-c4c(F)cccc4F)[nH]c3-c3ccccc3)cc21	≤ 5
CC(C)S(=O)(=O)n1c(N)nc2ccc(-c3nc(-c4cc(F)cc(F)c4)[nH]c3-c3ccccc3)cc21	≤ 5
CC(C)S(=O)(=O)n1c(N)nc2ccc(-c3nc(C4CCN(C)CC4)[nH]c3-c3ccccc3)cc21	≤ 5
CC(C)S(=O)(=O)n1c(N)nc2ccc(-c3c(-c4ccccc4)ncn3C3CCC(NC(=O)OC(C)(C)C)CC3)cc21 (stereo not given)	≤ 5
CC(C)S(=O)(=O)n1c(N)nc2ccc(-c3cc(C(C)(C)C)nn3-c3ccccc3)cc21	≤ 5
Cc1nc(-c2ccc3nc(N)n(S(=O)(=O)C(C)C)c3c2)c(-c2ccc(F)cc2F)[nH]1	≤ 5
CC(C)S(=O)(=O)n1c(N)nc2ccc(-c3nc(CN4CCOCC4)[nH]c3-c3ccccc3)cc21	≤ 5
CC(C)S(=O)(=O)n1c(N)nc2ccc(-c3nc(C4CCN(C(=O)OC(C)(C)C)CC4)[nH]c3-c3ccc(F)cc3)cc21	≤ 5
Nc1ccccc1Cc1nc2ccc(-c3[nH]cnc3-c3ccccc3)cc2[nH]1	≤ 5
CC(C)S(=O)(=O)n1c(N)nc2ccc(-c3nc(-c4c(F)cccc4F)[nH]c3-c3ccc(F)cc3)cc21	≤ 5
CC(C)S(=O)(=O)n1c(N)nc2ccc(-c3nc(C(C)(C)C)[nH]c3-c3ccccc3)cc21	≤ 5
CC(C)S(=O)(=O)n1c(N)nc2ccc(-c3nc(-c4ccc(OCCN(C)C)cc4)[nH]c3-c3ccccc3)cc21	≤ 5
